Results on four compounds are retold here after paper PMC8953385, “2-Styrylchromones: Cytotoxicity and Modulation of Human Neutrophils’ Oxidative Burst” (Pharmaceuticals, 2022).

The subject of one data set is human neutrophils. The data set is described as follows: Annexin V/PI flow cytometric assay of neutrophils’ viability. The format is cell-based. The following applies: for Higher 2-SC concentration that did not affect human neutrophils’ viability: annexin V/PI assay, 40 min incubation at 37 °C. The source says:
(§1) Following the Declaration of Helsinki and the approval of patient-related procedures and protocols by the Ethics Committee of Centro Hospitalar do Porto, Portugal, venous blood was collected from healthy human blood donors, after informed consent. The blood was stored into K3EDTA vacuum tubes after antecubital venipuncture of the donors. In order to obtain the isolated neutrophils, the density gradient centrifugation method was applied, as previously reported, with modifications. In brief, in a 15 mL polypropylene tube, 3 mL of histopaque 1119 were added followed by 3 mL of histopaque 1077 and finally, 4.5 mL of the collected blood were slowly added. Each tube was centrifuged at 900× g at 20 °C for 30 min, with a medium acceleration and deceleration speed. Following centrifugation, the neutrophils’ portion was harvested, and PBS was added to double the volume. The neutrophils’ suspension was then centrifuged at 850× g at 4 °C for 5 min, using a maximum acceleration and deceleration speed. The supernatant was discarded, and the neutrophils’ pellet was resuspended in PBS and afterward milli-Q water was added to lyse the residual erythrocytes. The tube was gently homogenized and after a few minutes, 3% NaCl was added to restore isotony, and then centrifuged again at 850× g at 4 °C for 5 min, using a maximum acceleration and deceleration speed. The supernatant was discarded, and a neutrophils’ pellet was obtained. After isolation, the neutrophils’ pellet was resuspended in the incubation media, tris-glucose buffer (25 mM Trizma® base, 5.5 mM D-glucose, 140 mM NaCl, 1.26 mM CaCl2, 0.81 mM MgSO4, 5.37 mM KCl, pH = 7.4). Neutrophils’ suspension was kept on ice, under soft shaking, until use. The trypan blue exclusion method was used to determine cells’ yield and viability.
(§2) The effect of the studied 2-SC on neutrophils’ viability was assessed by flow cytometry, after simultaneous staining with FITC Annexin V and propidium iodide (PI) (Figure S1), as previously reported by our research group, with modifications. After isolation, neutrophils (1 × 10^6 cells/mL) were incubated with 2-SC (up to 100.00 μM) or DMSO for 40 min, at 37 °C, in a 48-well plate. At the end of incubation, the content of each well was transferred to conical microtubes and centrifuged at 400× g at 20 °C for 5 min. After discarding the supernatant, the neutrophils’ pellet was resuspended in PBS and centrifuged under the previous conditions. Once the supernatant was removed, the pellet was resuspended in 10× diluted binding buffer, and then PI and annexin V were added. This mixture was incubated in the dark at room temperature for 15 min, and finally, 10× diluted binding buffer was added. In a flow cytometer, the fluorescence signal, of at least 10,000 cells/sample, were collected in logarithmic mode and followed in channels 1 and 3. The green fluorescence corresponding to annexin V FITC was accompanied in channel 1 and plotted as a histogram of FL1 staining, whereas the fluorescence corresponding to PI was monitored in channel 3 and plotted in the same histogram but as FL3 staining. The collected data were analyzed with the BD Accuri™ C6 software. The data analysis was restricted to the neutrophils’ population. Thus, according to the light-scattering properties of neutrophils (in a forward versus side scatter plot), a polygon gate was drawn, where debris and other blood cells were excluded. The effect of 2-SC on neutrophils’ viability was expressed as a relative percentage of apoptotic and/or necrotic cells when compared to the control (without 2-SC).
On the technique in general: A flow cytometer gives signals particle by particle.

Data set [1] relates to human neutrophils’ oxidative burst. The data set is described as follows: Neutrophils’ oxidative burst, PMA stimulation, luminol chemiluminescence. In kind it is cell-based. The following applies: Homo sapiens, Neutrophil.
Source text: as §1
The effect of 2-SC on the modulation of neutrophils’ oxidative burst was assessed after the stimulation of these cells with PMA by monitoring the oxidation of chemiluminescent probe, luminol, by the generated reactive species (Figure S2), according to a previously described methodology. Briefly, neutrophils (1 × 10^6 cells/mL) were pre-incubated with luminol (500.00 μM), and 2-SC (0.00–100.00 μM) or DMSO, at the final concentrations indicated. After this pre-incubation, at 37 °C for 5 min, PMA (160.00 nM) was added, and in turn, neutrophils’ stimulation was initiated. Kinetic readings were immediately initiated and followed for 40 min, at 37 °C, in a microplate reader. The arbitrary chemiluminescence value was taken at the peak of the curve, and the results were expressed as the inhibition percentage of luminol oxidation.
GraphPad Prism 6 software was used to plot the curves of percentage of inhibition versus concentrations of compound, from which the concentration that produces 50% of inhibition (IC50) was determined. GraphPad Prism 6 software was also used to perform all statistical analyses. […] In all cases, p-values < 0.05 were considered statistically significant. The results are expressed as mean ± standard error of the mean (SEM).

For data set [2] the following is noted: O2•−, cited from earlier work.
Data set [3] in a line: Annexin V/PI flow cytometric assay of neutrophils’ viability. The format is cell-based, human. The conditions noted are these: human, isolated human neutrophils, pH 7.4, representative plot, Figure 4, read-out: Viable cells [annexin V (−)/PI (−)], lower left quadrant.
Source text: as §1, §2

`COc1ccc(/C=C/c2cc(=O)c3ccc(O)c(O)c3o2)cc1OC` [C8]: the “Higher 2-SC concentration that did not affect human neutrophils’ viability” value with human neutrophils came to 6.25 µM. Further, the IC50 (in general, the concentration at which inhibition is half-maximal) in data set [1] (PMA 160.00 nM, luminol 500.00 μM, mean ± SEM, read-out: IC50, inhibition of human neutrophils’ oxidative burst) is 1.4 ± 0.2 µM. Moreover, the “Scavenging activity of reactive species” value in data set [2] (1O2, •NO and ONOO−) was “good scavenging activity”.

For the compound `O=c1cc(/C=C/c2ccc(O)cc2)oc2cccc(O)c12` [B2], the “Higher 2-SC concentration that did not affect human neutrophils’ viability” value in the data set on human neutrophils worked out at 6.25 µM. Moreover, the “Scavenging of reactive species” value in data set [2] (H2O2, HOCl, 1O2, •NO, ONOO−) was “much less active or inactive”.

Regarding `O=c1cc(/C=C/c2ccccc2)oc2cc(O)ccc12` [A3], the viability at 40 min, 75 µM in data set [3] (75.00 μM) stood at 84.3%. The “Effect on human neutrophils’ viability” value with human neutrophils (75.00 μM) was “showed no effect on human neutrophils’ viability”. Moreover, the “Higher 2-SC concentration that did not affect human neutrophils’ viability” value in the data set on human neutrophils turned out to be 75.00 µM. In addition, the inhibition at 75 µM in data set [1] (75.00 µM (highest tested concentration), read-out: Inhibitory activity (% ± SEM), neutrophils’ oxidative burst) was 53 ± 4%.

Take `O=c1cc(/C=C/c2ccccc2)oc2cc(O)cc(O)c12` [A4]: in data set [3] (25.00 μM), the viability at 40 min, 25 µM amounted to 88.4%. The viability at 40 min, 50 µM in data set [3] (50.00 μM) was determined as 63.8%. In the data set on human neutrophils (50.00 μM), the “Effect on total neutrophils’ population percentage” value is recorded as “significantly affected the total neutrophils’ population percentage” and the “Induction of late apoptosis” value is on record as “induced late apoptosis”. In addition, the “Higher 2-SC concentration that did not affect human neutrophils’ viability” value with human neutrophils amounted to 25.00 µM. For the same compound, the inhibition at 25 µM in data set [1] (25.00 µM (highest tested concentration), read-out: Inhibitory activity (% ± SEM), neutrophils’ oxidative burst) is less than 30%.
